Reference: ChEMBL document CHEMBL1145291, “Metal complexes with superoxide dismutase-like activity as candidates for anti-prion drug” (Bioorg Med Chem Lett, 2006)

What was measured:
[1] = Inhibition of PrP-res formation in prion Fukuoka1 strain infected mouse N2a#58 cells relative to control; assay type: functional
[2] = test system: ScN2a; assay: Inhibition of PrP-res formation in mouse ScN2a cells relative to control; assay type: functional, cell-based
[3] = test system: ScN2a; assay: Cytotoxicity against mouse ScN2a cells up to 1 uM; assay type: cell-based
[4] = Cytotoxicity against prion Fukuoka1 strain infected mouse N2a#58 cells up to 1uM; assay type: cell-based
[5] = test system: ScN2a; assay: Cytotoxicity against mouse ScN2a cells at 100 uM; assay type: cell-based
[6] = Cytotoxicity against prion Fukuoka1 strain infected mouse N2a#58 cells at 100 uM; assay type: cell-based

Compound | IC50 [1] | IC50 [2] | Activity [3] | Activity [4] | Activity [5] | Activity [6]
C[n+]1ccc(-c2c3nc(c(-c4cc[n+](C)cc4)c4ccc([nH]4)c(-c4cc[n+](C)cc4)c4nc(c(-c5cc[n+](C)cc5)c5ccc2[nH]5)C=C4)C=C3)cc1 | 160 nM | 130 nM | – | – | – | –
c1ccc2cc(-c3ccc4ccccc4n3)ncc2c1 | 250 nM | 5 nM | Not Active | Not Active | – | –
O=C([O-])c1cc(-c2cc(C(=O)[O-])c3ccccc3n2)nc2ccccc12.[Na+].[Na+] | – | – | Not Active | Not Active | – | –
O=C(O)c1ccc(-c2c3nc(c(-c4ccc(C(=O)O)cc4)c4ccc([nH]4)c(-c4ccc(C(=O)O)cc4)c4ccc([nH]4)c(-c4ccc(C(=O)O)cc4)c4nc2C=C4)C=C3)cc1 | 160 nM | 250 nM | – | – | – | –
Cc1cc(-c2ccccc2)c2ccc3c(-c4ccccc4)cc(C)nc3c2n1 [BATHOCUPROINE] | 200 nM | 80 nM | Not Active | Not Active | – | –
Cc1ccc2ccc3ccc(C)nc3c2n1 [NEOCUPROINE] | – | 80 nM | Not Active | Not Active | – | –
Oc1cccc2cccnc12 [OXYQUINOLINE] | – | – | – | – | Active | Active
c1cnc2c(c1)ccc1cccnc12 [PHENANTHROLINE] | – | – | – | – | Active | Active
c1ccc(-c2cccc(-c3ccccn3)n2)nc1 [TERPYRIDINE] | – | – | – | – | Active | Active
O=S(=O)(O)c1ccc(-c2c3nc(c(-c4ccc(S(=O)(=O)O)cc4)c4ccc([nH]4)c(-c4ccc(S(=O)(=O)O)cc4)c4ccc([nH]4)c(-c4ccc(S(=O)(=O)O)cc4)c4nc2C=C4)C=C3)cc1 [TETRAPHENYLPORPHINE TETRASULFONIC ACID] | 160 nM | 200 nM | – | – | – | –
C1=Cc2nc1c(-c1ccccc1)c1nc(c(-c3ccccc3)c3ccc([nH]3)c(-c3ccccc3)c3ccc([nH]3)c2-c2ccccc2)C=C1 [TETRAPHENYLPORPHYRIN] | 320 nM | 10 nM | – | – | – | –
